Experimental data published in patent US8846746B2, “Pyrazole compound and pharmaceutical use thereof” (Japan Tobacco Inc., priority 2011, dated 2014).

Biological target: human SGLT1 (Homo sapiens (Human), UniProt P13866)
Assay: SGLT1 inhibitory activity: 14C-AMG uptake into CHO-K1 cell line stably expressing human SGLT1
Format: cell-based
Settings: for IC50: 14C-AMG uptake; for inhibition at 0.1 µM: CHO-K1, at 0.1 uM
Method: SGLT1 inhibitory activity of a test compound (IC50 value) was calculated based on an amount of intake into a cell of labeled α-methyl-D-glucopyranoside (^14C-AMG) which is transported by SGLT1.
1) Construction of Human SGLT1 Expression Plasmid
A DNA fragment containing human SGLT1, wherein NheI recognition and cleavage sequence was added upstream of a Kozac consensus sequence of the vector; and a stop codon (TAG) and a SalI recognition and cleavage sequence was added just downstream of a coding region of the human SGLT1, was amplified by PCR using pCMV6-hSGLT1 (OriGene) as a template. The purified DNA fragment was cleaved by restriction enzymes NheI and SalI, and the obtained fragment was ligated into pcDNA3.1 (+) which was cleaved by NheI and XhoI to construct human SGLT1 expression plasmid.
2) Establishment of Stable Cell Lines Expressing Human SGLT1
A human SGLT1 expression plasmid pcDNA-hSGLT1 was transfected into CHO-K1 cells by Lipofectamine-2000 (Invitrogen). The cells were cultured in the presence of G418 (Nakalai tesque) and drug-resistant cells were selected. A cell line having the highest S/B ratio of an amount of ^14C-AMG uptake per cell treated by solvent to an amount of ^14C-AMG uptake per cell treated by phlorizin (SGLT inhibitor) was selected from the drug-resistant cells as a stable cell lines expressing human SGLT1.
3) Evaluation of SGLT1 Inhibitory Activity
The stable cell line expressing human SGLT1 was seeded at 5×10^4 cells/well on BioCoat™ Poly-D-Lysine 96 well plate with Lid (Becton Dickinson and Company) and cultured at 37° C. under 5% CO2 overnight. The medium was replaced with 100 μL/well of a Na (−) buffer (140 mM choline chloride, 2 mM KCl, 1 mM MgCl2, 1 mM CaCl2, 10 mM HEPES, 5 mM Tris, pH7.4) followed by incubation for 20 minutes at 37° C. under 5% CO2. After removing the Na (−) buffer, a test compound solution which was prepared from Na (+) buffer (140 mM NaCl, 2 mM KCl, 1 mM MgCl2, 1 mM CaCl2, 10 mM HEPES, 5 mM Tris, pH7.4) containing BSA was added thereto at 40 μL/well. In addition, Na (+) buffer containing 8 kBq of ^14C-AMG and 2 mM AMG was added thereto at 40 μL/well, and was mixed well. Na (−) buffer containing BSA was added to a blank well at 40 μL/well and additionally adding a Na (+) buffer containing 8 kBq of ^14C-AMG and 2 mM AMG, and was mixed well. Cells were incubated for 1 hour at 37° C. under 5% CO2. After the reaction, the cells were washed twice with 100 μL/well of iced wash buffer (100 mM AMG, 140 mM choline chloride, 2 mM KCl, 1 mM MgCl2, 1 mM CaCl2, 10 mM HEPES, 5 mM Tris, pH7.4), then lysed in 50 μL/well of a 0.2N aqueous solution of NaOH. The cell lysate was transferred to OptiPlate96 (Perkin-Elmer) and 100 μL/well of MicroScint-40 (Perkin-Elmer) was dispensed. The radioactivity was counted by TOPCOUNT NXT (Perkin-Elmer).
A data was obtained by deducting the average value (CPM) of blank wells from the average value (CPM) of each treated well. The inhibition ratio (%) was calculated by the following formula: inhibition rate (%)=[(A−B)/A]×100, where A is a data of the solvent control, and B is a data of a test compound.

[1] = CHO-K1 cells stably expressing human SGLT1
[2] = CHO-K1 cells expressing human SGLT1

Sequence of human SGLT1 (P13866 whole entry): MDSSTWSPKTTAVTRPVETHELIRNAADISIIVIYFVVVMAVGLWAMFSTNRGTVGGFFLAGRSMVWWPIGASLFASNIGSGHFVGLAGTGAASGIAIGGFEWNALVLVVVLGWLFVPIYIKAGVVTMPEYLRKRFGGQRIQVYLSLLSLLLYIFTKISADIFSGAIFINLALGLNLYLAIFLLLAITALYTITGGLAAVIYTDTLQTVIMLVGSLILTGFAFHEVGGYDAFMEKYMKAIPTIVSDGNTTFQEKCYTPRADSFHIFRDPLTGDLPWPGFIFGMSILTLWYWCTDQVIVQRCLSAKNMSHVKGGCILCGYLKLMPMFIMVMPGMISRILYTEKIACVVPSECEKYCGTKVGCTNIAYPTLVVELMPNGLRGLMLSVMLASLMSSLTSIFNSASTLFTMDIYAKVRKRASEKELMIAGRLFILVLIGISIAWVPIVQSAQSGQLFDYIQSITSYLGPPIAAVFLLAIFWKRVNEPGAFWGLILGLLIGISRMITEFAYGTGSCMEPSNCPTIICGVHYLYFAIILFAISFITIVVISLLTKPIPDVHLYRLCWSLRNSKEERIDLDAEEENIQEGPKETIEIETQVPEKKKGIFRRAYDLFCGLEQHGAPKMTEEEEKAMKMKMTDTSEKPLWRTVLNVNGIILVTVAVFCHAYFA

IC50 [1] | IC50 [2] | SMILES | also measured
0.02 µM |  | CC(C)(C)COCc1cccc(-c2cc(NC(=O)C3CCC(=O)NC3)nn2-c2ccccc2)c1 (single isomer, unassigned) [Example 333] | 
 | 0.012 µM | Cc1ccc(-n2nc(NC(=O)[C@H]3CNC(=O)C3)cc2-c2cccc(C(F)(F)F)c2)cc1 [Example 230] | 
0.00785 µM |  | CCCc1cccc(-c2cc(NC(=O)[C@@H]3CNC(=O)C3)nn2-c2cccc(OCCOC)c2)c1 [Example 406] | 
0.0087 µM |  | C[C@@H](OCc1cc(F)cc(-c2cc(NC(=O)[C@H]3CNC(=O)N3)nn2-c2ccc(Cl)cc2)c1)C(F)(F)F [Example 570] | 
 |  | O=C1C[C@H](C(=O)Nc2cc(-c3cccc(OC(F)(F)F)c3)n(-c3cccc(O)c3)n2)CN1 [Example 439] | inhibition at 0.1 µM: 45%
0.016 µM |  | O=C1C[C@H](C(=O)Nc2cc(-c3cc(F)cc(COCC(F)(F)F)c3)n(-c3ccc(Cl)cc3)n2)CN1 [Example 512] | 
0.012 µM |  | CC(C)(OCc1cccc(-c2cc(NC(=O)[C@@H]3CNC(=O)C3)nn2-c2ccc(Cl)cc2)c1)C(F)(F)F [Example 575] | 
0.0014 µM |  | CC(C)Oc1ccc(F)c(-n2nc(NC(=O)[C@@H]3CNC(=O)C3)cc2-c2cccc(CO[C@H](C)C(F)(F)F)c2)c1 [Example 464] | 
0.0085 µM |  | COc1cc(F)cc(-n2nc(NC(=O)[C@@H]3CNC(=O)C3)cc2-c2cccc(COCC(F)(F)F)c2)c1 [Example 527] | 
0.0098 µM |  | O=C1C[C@@H](C(=O)Nc2cc(-c3cccc(COCC(F)(F)F)c3)n(-c3ccccc3)n2)CN1 [Example 280] | 
 |  | O=C1C[C@H](C(=O)Nc2cc(-c3cccc(COC4CCOCC4)c3)n(-c3ccccc3)n2)CN1 [Example 543] | inhibition at 0.1 µM: 15%
0.012 µM |  | CCCc1cccc(-c2cc(NC(=O)[C@@H]3CNC(=O)C3)nn2-c2ccc(CC)cc2)c1 [Example 403] | 
0.0032 µM |  | CCCc1cccc(-c2cc(NC(=O)C3CC[S+]([O-])CC3)nn2-c2ccccc2)c1 (centres unmarked) [Example 318] | 
 |  | CC(C)(C)C#Cc1cccc(-c2cc(NC(=O)[C@@H]3CNC(=O)C3)nn2-c2ccccc2)c1 [Example 499] | inhibition at 0.1 µM: 4%
0.0155 µM |  | CC(C)(C)COCc1cccc(-c2cc(NC(=O)[C@@H]3CNC(=O)C3)nn2-c2ccccc2)c1 [Example 315] | 
0.016 µM |  | CC(C)(OCc1cc(F)cc(-c2cc(NC(=O)[C@H]3CNC(=O)N3)nn2-c2ccc(Cl)cc2)c1)C(F)(F)F [Example 603] | 
 | 0.024 µM | O=C1C[C@H](C(=O)Nc2cc(-c3cccc(OC(F)(F)F)c3)n(-c3ccccc3)n2)CN1 [Example 29] | 
 | 0.13 µM | O=C1C[C@@H](C(=O)Nc2cc(-c3cccc(Cl)c3)n(-c3ccccc3)n2)CN1 [Example 38] | 
0.013 µM |  | CCCCc1cccc(-c2cc(NC(=O)[C@H]3CNC(=O)O3)nn2-c2ccccc2)c1 [Example 306] | 
 |  | CCCN1C(=O)NC[C@H]1C(=O)Nc1cc(-c2cccc(OC(F)(F)F)c2)n(-c2ccccc2)n1 [Example 298] | inhibition at 0.1 µM: 38%
 | 0.0038 µM | CCC(C)(C)c1cccc(-c2cc(NC(=O)[C@@H]3CNC(=O)C3)nn2-c2ccccc2)c1 [Example 53] | 
 | 0.0017 µM | CCC(F)(F)c1cccc(-c2cc(NC(=O)[C@H]3CNC(=O)C3)nn2-c2cccc(Cl)c2)c1 [Example 139] | 
0.02 µM |  | CCOc1cc(-n2nc(NC(=O)[C@@H]3CNC(=O)C3)cc2-c2cccc(OC(F)(F)F)c2)ccc1F [Example 421] | 
0.016 µM |  | C[C@H](OCc1cccc(-c2cc(NC(=O)[C@@H]3CNC(=O)C3)nn2-c2ccccc2)c1)C(F)(F)F [Example 335] | 
 | 0.0072 µM | CCCc1cccc(-c2cc(NC(=O)[C@H]3CNC(=O)N3C)nn2-c2ccccc2)c1 [Example 6, (R)-3-methyl-2-oxoimidazolidine-4-carboxylic acid [1-phenyl-5-(3-propylphenyl)-1H-pyrazol-3-yl]amide] | 
0.022 µM |  | CCCc1cccc(-c2cc(NC(=O)[C@@H]3CNC(=O)C3)nn2-c2cccc(C#CC(C)(C)C)c2)c1 [Example 495] | 
0.035 µM |  | CCCc1cccc(-c2cc(NC(=O)[C@@H]3CNC(=O)C3)nn2-c2ccc(OC(F)(F)F)cc2)c1 [Example 386] | 

IC50 [1] | IC50 [2] | SMILES | also measured
0.0073 µM |  | O=C1C[C@H](C(=O)Nc2cc(-c3cccc(COCC(F)(F)F)c3)n(-c3ccccc3Cl)n2)CN1 [Example 474] | 
0.081 µM |  | O=C1C[C@H](C(=O)Nc2cc(-c3cccc(OC(F)(F)F)c3)n(-c3ccc(F)cc3)n2)CN1 [Example 502] | 
0.039 µM |  | O=C1NC[C@H](C(=O)Nc2cc(-c3cccc(OC(F)(F)F)c3)n(-c3ccccc3)n2)O1 [Example 264] | 
0.0076 µM |  | CCCc1cccc(-c2cc(NC(=O)[C@@H]3CNC(=O)C3)nn2-c2cccc(OCCOCc3ccccc3)c2)c1 [Example 407] | 
 | 0.47 µM | O=C1C[C@@H](C(=O)Nc2cc(C3CCCCCC3)n(-c3ccccc3)n2)CN1 [Example 62] | 
 |  | O=C1NCC(C(=O)Nc2cc(-c3cccc(OC(F)(F)F)c3)n(-c3ccccc3)n2)CN1 [Example 252] | inhibition at 0.03 µM (CHO-K1, at 0.03 uM): 7%
 |  | CCCc1cccc(-c2cc(NC(=O)C3CNC(=O)C3(C)C)nn2-c2ccccc2)c1 (centres unmarked) [Example 398] | inhibition at 0.1 µM: 7%
 | 0.0062 µM | Cc1ccc(-n2nc(NC(=O)[C@H]3CNC(=O)[C@@H]3C)cc2-c2cccc(OCC(F)(F)F)c2)cc1 [Example 217] | 
 | 0.005 µM | CCCc1cccc(-c2cc(NC(=O)[C@H]3CNC(=O)C3)nn2-c2cccc(OC)c2)c1 [Example 123] | 
 | 0.056 µM | CC(C)(C)c1cccc(-c2cc(NC(=O)[C@H]3CNC(=O)C3)nn2C2CCOCC2)c1 [Example 177] | 
0.012 µM |  | CC(C)(OCc1cc(Cl)cc(-c2cc(NC(=O)[C@@H]3CNC(=O)C3)nn2-c2ccc(F)cc2)c1)C(F)(F)F [Example 581] | 
 | 0.01 µM | CCCc1cccc(-c2cc(NC(=O)[C@@H]3CNC(=O)N3)nn2-c2ccccc2)c1 [Example 97] | 
 |  | C[C@@H](OCc1cc(-c2cc(NC(=O)[C@@H]3CNC(=O)C3)nn2-c2ccccc2)cc(C(F)(F)F)c1)C(F)(F)F [Example 544] | inhibition at 0.1 µM: 21%
 |  | O=C1C[C@@H](C(=O)Nc2cc(-c3cccc(OC(F)(F)F)c3)n(-c3ccc(F)cc3Cl)n2)CN1 [Example 192] | inhibition at 0.3 µM (CHO-K1, at 0.3 uM): 6%
 | 0.05 µM | O=C1C[C@@H](C(=O)Nc2cc(-c3cccc(OC(F)(F)F)c3)n(C3CCCCCC3)n2)CN1 [Example 85] | 
 | 0.025 µM | O=C1C[C@@H](C(=O)Nc2cc(-c3cccc(C4CC4)c3)n(-c3ccccc3)n2)CN1 [Example 92] | 
0.00377 µM |  | CCCc1cccc(-c2cc(NC(=O)[C@@H]3CNC(=O)C3)nn2-c2ccccc2C)c1 [Example 261] | 
 | 0.011 µM | COC(C)(C)c1cccc(-c2cc(NC(=O)[C@@H]3CNC(=O)C3)nn2-c2ccccc2)c1 [Example 83] | 
 | 0.044 µM | CCCc1cccc(-c2cc(NC(=O)[C@H]3CNC(=O)C3)nn2CCc2ccccc2)c1 [Example 107] | 
 | 0.0019 µM | CCCc1cccc(-c2cc(NC(=O)[C@H]3CNC(=O)C3)nn2-c2ccccc2Cl)c1 [Example 100] | 
 | 0.57 µM | O=C1C[C@@H](C(=O)Nc2cc(-c3cccc(CO)c3)n(-c3ccccc3)n2)CN1 [Example 119] | 
0.0041 µM |  | CCOc1cccc(-n2nc(NC(=O)[C@@H]3CNC(=O)C3)cc2-c2cccc(CO[C@H](C)C(F)(F)F)c2)c1F [Example 485] | 
0.0047 µM |  | CCOc1cccc(-n2nc(NC(=O)[C@@H]3CNC(=O)C3)cc2-c2cccc(COCC(F)(F)F)c2)c1 [Example 447] | 
0.015 µM |  | CCCc1cccc(-c2cc(NC(=O)[C@@H]3CNC(=O)C3)nn2-c2ccc(F)c(OC)c2)c1 [Example 389] | 
0.0033 µM |  | COc1cccc(-n2nc(NC(=O)[C@@H]3CNC(=O)C3)cc2-c2cccc(CO[C@H](C)C(F)(F)F)c2)c1 [Example 451] | 
 | 0.0024 µM | CCCc1cccc(-c2cc(NC(=O)[C@H]3CNC(=O)C3)nn2-c2cccc(Cl)c2)c1 [Example 95] | 
